Measurements reported in US8673955B2, “Imidazole derivatives as fructose-1,6-bisphosphatase inhibitors and pharmaceutical compositions containing them” (Merck Patent GmbH, priority 2005, dated 2014).
Like-named read-outs stand apart in the source and are kept apart here.

Key:
[1] = molecular target: T1, human liver recombinant Fructose-1,6-bisphosphatase (Homo sapiens, UniProt P09467); assay: Inhibition of human liver recombinant fructose-1,6-bisphosphatase, coupled spectrophotometric enzyme assay; assay type: biochemical
T1 sequence (P09467 1-338): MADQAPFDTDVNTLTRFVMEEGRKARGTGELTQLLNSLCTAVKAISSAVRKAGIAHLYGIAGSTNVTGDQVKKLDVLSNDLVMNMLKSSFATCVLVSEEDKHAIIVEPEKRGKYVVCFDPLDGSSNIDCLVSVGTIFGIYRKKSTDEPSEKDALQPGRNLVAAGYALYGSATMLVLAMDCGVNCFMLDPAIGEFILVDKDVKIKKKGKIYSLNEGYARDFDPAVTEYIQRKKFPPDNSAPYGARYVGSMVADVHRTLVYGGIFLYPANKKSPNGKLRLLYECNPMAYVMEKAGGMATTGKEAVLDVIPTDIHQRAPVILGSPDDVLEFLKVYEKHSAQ
Protocol: Enzymatic activity was measured spectrophotometrically in reactions that coupled the formation of product (fructose 6-Phosphate) to the reduction of NADP+, using phosphoglucoisomerase (PGI) and glucose 6-phosphate dehydrogenase (G6PDH) as the coupling enzymes.
Reaction mixtures (250 μl) were made up in 96-well microtitre plates, and consisted of 20 mM triethanolamine, pH 7.5, 2 mM MgCl2, 0.1 mM EDTA, 40 mM ammonium sulfate, 0.5 mM NADP, 1 U/ml G6PDH, 1 U/ml PGI and 0.167 mM substrate (Fructose 1,6-bisphosphate). The inhibitors were prepared at 10^-2 M in DMSO 100% and tested at 10^-5 M (DMSO 0.1%).
Reactions were started by the addition of the human liver recombinant Fructose-1,6-bisphosphatase and were monitored for 30 minutes at 340 nm in a Tecan Plate Reader (Room temperature).

[2] = tested on: primary culture of rat hepatocytes; assay: Hepatic glucose production in primary culture of rat hepatocytes (DHA as gluconeogenic precursor); assay type: cell-based; conditions: 100 μM compound; 3 h incubation with DHA; control without compound = 100%
Protocol: Effects of the compounds previously described on hepatic glucose production in primary culture of rat hepatocytes.
Hepatocytes were isolated from normal Wistar rats in overnight fasted condition by collagenase perfusion as described by Seglen (Methods Cell Biol., (1975); 13, 29-83). Cell viability was assessed by the trypan blue exclusion test. The isolated hepatocytes were suspended in William's medium containing 10% fetal bovine serum in 6 well plates. After cell attachment (4 h) the medium was changed to remove cellular debris and replaced by serum-free minimum essential medium without glucose and the hepatocytes were cultured for 16-18 h (37° C.; 5%, CO2). At the end of the culture and after removing the medium, glucose production was assessed by incubating hepatocytes for 3 h in KREBS buffer supplemented with dihydroxyacetone (DHA) as a gluconeogenic precursor in the presence or not of the different compounds previously described. After the 3 h incubation time, the amount of glucose in the buffer was assayed by a glucose oxidase method (GOD). The total amount of cellular protein per well was measured by the method of Lowry. The results were expressed as nanomoles of glucose produced per mg cell protein. The activity of the tested compounds was expressed as % of control glucose production in presence of DHA and without compound (100%).

[3] = stated in method text, read-out: IC50 for reference inhibitors of Fructose-1,6-bisphosphatase
[4] = 0.167 mM fructose 1,6-bisphosphate, pH 7.5, room temperature, read-out: Inhibition of human F-1,6-Bpase IC50

Compound: Nc1ncnc2c1ncn2[C@@H]1O[C@H](COP(=O)(O)O)[C@@H](O)[C@H]1O [AMP, reference compound]
- IC50 [1, 3]: ~10 µM

Compound: Cc1nc(-c2ccc3ccc(COCc4cn(Cc5ccc(C(=O)O)cc5)c(-c5ccc(Cl)s5)n4)cc3c2)no1 [Example 26, 4-{2-(5-Chlorothiophen-2-yl)-4-[7-(5-methyl-[1,2,4]-oxadiazol-3-yl)naphthalen-2-ylmethoxymethyl]imidazol-1-ylmethyl}benzoic acid]
- IC50 [1, 4]: 51.2 µM
- Hepatic glucose production (rat hepatocytes) % of control at 100 μM [2]: 44 % of control

Compound: O=P(O)(O)OC[C@H]1O[C@@](CO)(OP(=O)(O)O)[C@@H](O)[C@@H]1O [Fructose-2,6-Bisphosphate, reference compound]
- IC50 [1, 3]: ~35 µM

Compound: O=C(O)c1ccc(Cn2cc(COCc3cccc(-c4ccccc4)c3)nc2-c2ccc(Cl)s2)cc1 [Example 20, 4-[4-(Biphenyl-3-ylmethoxymethyl)-2-(5-chlorothiophen-2-yl)imidazol-1-ylmethyl]benzoic acid]
- IC50 [1, 4]: 70.2 µM
- Hepatic glucose production (rat hepatocytes) % of control at 100 μM [2]: 10 % of control

Compound: O=C(O)c1ccc(Cn2cc(COCc3ccc(Cl)cc3)nc2-c2ccc(Br)cc2)cc1 [Example 47, 4-[2-(4-Bromophenyl)-4-(4-chlorobenzyloxymethyl)imidazol-1-ylmethyl]benzoic acid]
- IC50 [1, 4]: 88.3 µM
- Hepatic glucose production (rat hepatocytes) % of control at 100 μM [2]: 61 % of control
